Assay results as given in US10525101B2, “Methods of treating inflammatory or autoimmune disorders with compounds that bind macrophage migration inhibitory factor” (Oregon Health & Science University, priority 2015, dated 2020).
Ends that are not written are not given here.

B1: DRα1-MOG-35-55: second generation derivative of RTL1000, partial MHC molecule DRα1 construct that binds CD74 (protein)
chain: MEVGWYRSPFSRVVHLYRNGKGGGGSLVPRGSGGGGIKEEHVIIQAEFYLNPDQSGEFMFDFDGDEIFHVDMAKKETVWRLEEFGRFASFEAQGALANIAVDKANLEIMTKRSNYTPITN

Columns and labels:
human MIF (hMIF) = target: T1, human MIF (hMIF) (Homo sapiens, UniProt P14174); test: Competition ELISA: peptides blocking rmCD74 binding to plate-coated hMIF; details: FIG. 2A/2B
T1 sequence (P14174 2-115 limits assumed): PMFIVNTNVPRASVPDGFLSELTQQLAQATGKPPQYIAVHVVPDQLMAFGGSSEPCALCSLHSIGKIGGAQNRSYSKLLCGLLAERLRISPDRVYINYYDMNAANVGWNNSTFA
Procedure: The ability of α-helix 1 and α-helix 2 peptides to compete with MIF for binding to CD74 was tested. Briefly, 50 μl of hMIF at a concentration of 0.5 μg/ml in PBS was coated onto ELISA plates for 2 hours at RT, washed 4 times with […] of PBS/0.0125% T20, blocked with 300 μl of 5% BSA in PBS, pH 7.4 for 2 hours at room temperature, and then a mixture of rmCD74 (constant concentration of 0.5 μg/ml) and competitor (SEQ ID NO: 2, SEQ ID NO: 4) at an initial concentration of 66 μM (33 μM each, mixed or 66 μM each, separately) in 5% BSA/PBS was added to the wells for 3 hours at room temperature to allow binding. Wells were thoroughly washed with PBS/T20 and the mAb PIN.1/anti-mIgG1-HRP (at 0.5 μg/ml in 5% BSA/PBS each) was used to detect the remaining rmCD74 bound to MIF. This mAb recognizes an epitope located at the N-terminus of the protein. Color was developed after adding 50 μl of TMB for 5 minutes and the reaction was stopped with 50 μl of 0.1N HCl. Data was first normalized and then analyzed using GraphPad Prism software. IC50 were calculated by fitting the curve to a competition model involving a two-binding site equation.

DRα1mMOG-35-55 = test: Competition ELISA: peptides competing with rmCD74 for binding to plate-coated DRα1mMOG-35-55; details: for competition with CD74 for binding to DRα1-mMOG-35-55 (in words): FIG. 3A, FIGS. 4A/4B; for IC50: FIGS. 4A and 4B, peptides combined or alone, read-out: IC50 for blocking rmCD74 binding to DRα1mMOG-35-55; for LogIC50 vs DRα1mMOG-35-55 / IC50 vs DRα1mMOG-35-55: Table 1, from FIG. 3A, one-binding site fit; for IC50 vs DRα1mMOG-35-55: rmCD74 50 nM
Procedure: (§1) Competition of peptides with rmCD74 for binding to RTL1000 or DRα1mMOG35-55 was also tested. Briefly, 50 μl of 1 μg/ml either RTL1000 or DRα1mMOG-35-55 were coated onto ELISA plates at 25° C. for 2 hours. Each well was washed 4 times with 300 μl of PBS/0.0125% Tween 20 (PBS/T20) to remove excess of protein and then blocked with 5% BSA/PBS at pH 7.4 (BSA/PBS) for 2 hours at the same temperature. Serial 1:2 dilutions of α-helix 1 or α-helix 2 (starting with a concentration of 66 μM, 50 μg/ml each) were prepared in rmCD74 (in BSA/PBS, 50 nM, 0.5 ug/ml) and added to the plate. Competition for the binding site was allowed for 3 hours at 25° C. and then unbound complexes were washed 4 times with PBS/T20. Remaining rmCD74 bound to RTL1000 or DRα1mMOG-35-55 was detected by the PIN.1/anti-mouse IgG1-HRP at 1 ul/ml of both in BSA/PBS for 1.5 hours at 25° C. and visualized by adding TMB substrate (50 μl, according to the manufacturer's instructions). Color development was stopped with 0.1N HCl and the plate was read at 450 nm in an ELISA plate reader. Data were normalized and fitted to a one-binding site model and competitor concentration was plotted against Absorbance at 450 nm to determine the IC50 of each peptide competitor. All data were analyzed using Prism software (GraphPad).

RTL1000 = test: Competition ELISA: peptides competing with rmCD74 for binding to plate-coated RTL1000; details: for competition with CD74 for binding to RTL1000 (in words): FIG. 3A; for LogIC50 vs RTL 1000 / IC50 vs RTL 1000: Table 1, from FIG. 3A, one-binding site fit; for IC50 vs RTL 1000: rmCD74 50 nM, in µM
Procedure: as §1

[1] = test system: experimental autoimmune encephalomyelitis (EAE); details: mice with EAE, treated after onset of clinical signs; cited from earlier work

Row | Molecule | blocking of rmCD74 binding to human MIF (in words) (human MIF (hMIF)) | competition with CD74 for binding to DRα1-mMOG-35-55 (in words) (DRα1mMOG-35-55) | competition with CD74 for binding to DRα1-mMOG-35-55 (in words) (DRα1mMOG-35-55; listed as SEQ ID NO: 4) | IC50 (DRα1mMOG-35-55) [µM] | LogIC50 vs DRα1mMOG-35-55 (DRα1mMOG-35-55) | IC50 vs DRα1mMOG-35-55 (DRα1mMOG-35-55) | competition with CD74 for binding to RTL1000 (in words) (RTL1000) | LogIC50 vs RTL 1000 (RTL1000) | IC50 vs RTL 1000 (RTL1000) | blocking of rmCD74 binding to human MIF (in words) (human MIF (hMIF); listed as SEQ ID NO: 2) | effect on EAE (in words) [1]
1 | KGSFPENLRHLKNTMET [α-helix 2] | to a lesser extent | did not have a significant effect | competes to a lesser extent | 24.5 | 2.222 | 166.6 | competes to a lesser extent | 1.535 | 34.27 | – | –
2 | TEDHVMHLLQNAD [α-helix 1] | blocks CD74 binding to hMIF | able to outcompete | – | 35 | 1.002 | 10.05 | able to outcompete | 0.8309 | 6.775 | able to block | –
3 | B1 | – | – | – | – | – | – | – | – | – | – | reduced disease severity
